PubChem BioAssay AID2060910 (Molecular Pharmacology Branch, DTP, NCI, 2025)
pIC50: −log10 of the molar value.

Tested on: 242566-281-R-J2-PDC complex spheroid viability
Test: Anticancer human tumor 242566-281-R-J2-PDC patient-derived pancreatic carcinoma cell line growth inhibition [RAS]
Conditions: for pIC50: curve of first compound; for viability, T/C: stronger effect = lower value
Excerpt: RAS pathway inhibitors in Combinations in Complex Spheroids
A high-throughput screen of multi-cell type tumor spheroids was designed to identify active combinations of RAS pathway inhibitors and targeted small molecules. Complex spheroids include a stromal component modeled by human endothelial cells (HUVEC) and fibroblasts modeled by human mesenchymal stem cells (MSCs). The concentration ranges selected for each drug and investigational agent were based upon clinically achievable concentrations if the clinical Cmax of the agent was known.
Compounds. The drugs and investigational agents: abemaciclib (NSC768073), cobimetinib (NSC768068), divarasib (GDC6063, NSC841802), docetaxel (NSC628503), GDC-1971 (RLY-1971, NSC841576), gemcitabine (NSC613327), inavolisib (NSC800729), ipatasertib (NSC767898), KB-0742 (NSC834161), MRTX-1133 (NSC836407), osimertinib (NSC779217), RMC-4630 (NSC839698), RMC-6236 (NSC851965), RMC-6291 (NSC852671), Ro-3306 (NSC812927), sapanisertib (NSC764658), SN-38 (NSC673596), staurosporine (NSC755774), SY5609 (NSC837396), and tovorafenib (DAY101, NSC766906), were obtained from the National Cancer Institute (NCI) Developmental Therapeutics Program Chemical Repository. The FDA-approved anticancer drug set is available from the NCI Developmental Therapeutics Program. […] The stock solutions were prepared in dimethyl sulfoxide (DMSO, Sigma-Aldrich, St. Louis, MO, cat. D2650) at 800-fold the tested concentration and stored at -70 degrees C prior to their use. All drugs and investigational agents were tested over a range starting from a high concentration at or near the clinical Cmax and decreasing in half-log increments. If the clinical Cmax for an agent had not been determined, the highest concentration tested was 10 microM.
Cell Culture. All cells were maintained in an incubator at 37 degrees C and 5% CO2 with 95% humidity. The PDC lines were cultured according to standard operating procedures established by the NCI PDMR. All PDCs were thawed and cultured in Matrigel-coated flasks prepared with a working solution of 1X Ham's F-12 nutrient mix, without supplementation (Invitrogen, Waltham, MA, cat. 11765054), 100 U/mL penicillin-streptomycin (Invitrogen, cat. 15140122), and 2.5% Matrigel (Corning Inc., Corning, NY, cat. 354248) for the first three passages. The 362531-283-R-J2-PDC and 782815-120-R-J1-PDC lines were cultured in 6C/Colon 1B media, which includes advanced DMEM/F-12 (Thermo Fisher Scientific, cat. 12634028), 10 mM HEPES (Thermo Fisher Scientific, cat. 15630080), 1X GlutaMAX supplement (Thermo Fisher Scientific, cat. 35050061), 0.1 mg/mL primocin (InvivoGen, San Diego, CA, cat. ant-pm-2), 10% defined fetal bovine serum, heat inactivated (HyClone Laboratories Inc., Logan, UT, cat. SH30070.03HI), 50% L-WRN conditioned media (ATCC, cat. CRL-3276), 1.25 mM N-Acetyl-L-cysteine (Sigma-Aldrich, cat. A9165), 10 mM nicotinamide (Sigma-Aldrich, cat. N0636), 1X B-27 supplement (Thermo Fisher Scientific, cat. 17504044), 1X N-2 supplement (Thermo Fisher Scientific, cat. 17502048), 50 ng/mL human EGF (Thermo Fisher Scientific, cat. PHG0311), and 10 microM Y-27632 dihydrochloride (Tocris Bioscience, cat. 1254). The K12877-001-R-J1-PDC line was cultured in 6I media, which includes all 6C/Colon 1B media plus 10 ng/mL human FGF-10 (PeproTech, cat. 100-26), 1 ng/mL human FGF-2 (PeproTech, cat. 100-18B), 1 µM prostaglandin E2 (Tocris Bioscience, cat. 2296), […] hydrocortisone (Sigma-Aldrich, cat. H4001), and […] bovine insulin (Sigma-Aldrich, cat. I6634). The K86415-001-R-J1-PDC line was cultured in 6D media, which includes all 6C/Colon 1B media components minus the L-WRN conditioned media. The 485176-168-R4-J1-PDC was cultured in PANC media, which includes all 6C/Colon 1B media plus 100 ng/mL human FGF-10 (PeproTech, cat. 100-26), 500 nM SB-431542 (Selleckchem, cat. S1067), and 10 nM gastrin (Tocris Bioscience, cat. 3006). […]
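Also: spheroids exposed to compound for 7 days before readout.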
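For viability, T/C in this document: 100% = DMSO vehicle control wells.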

CC1(C)CCC(Nc2ncc(C(F)(F)F)c(-c3c[nH]c4c(P(C)(C)=O)c(C#N)ccc34)n2)CN1 (configuration not stated) + CCn1c(-c2cccnc2C(C)OC)c2c3cc(ccc31)N1CCOC(CC(NC(=O)C(C(C)C)N(C)C(=O)C3(F)CCN(C(=O)C#CC(C)(C)N(C)C)CC3)C(=O)N3CCCC(N3)C(=O)OCC(C)(C)C2)C1
pIC50 (second compound 0.000949 µM): < 6.52
pIC50 (second compound 0.003 µM): < 6.52
pIC50 (second compound 0.00949 µM): < 6.52
pIC50 (second compound 0.03 µM): < 6.52
pIC50 (second compound 0.0949 µM): < 6.52
pIC50 (second compound 0.3 µM): < 6.52
viability, T/C (second compound 0.000949 µM, first compound 0.000949 µM): 114%
viability, T/C (second compound 0.000949 µM, first compound 0.003 µM): 100%
viability, T/C (second compound 0.000949 µM, first compound 0.00949 µM): 77.1%
viability, T/C (second compound 0.000949 µM, first compound 0.03 µM): 97.6%
viability, T/C (second compound 0.000949 µM, first compound 0.0949 µM): 94%
viability, T/C (second compound 0.000949 µM, first compound 0.3 µM): 70.7%
viability, T/C (second compound 0.003 µM, first compound 0.000949 µM): 111%
viability, T/C (second compound 0.003 µM, first compound 0.003 µM): 86%
viability, T/C (second compound 0.003 µM, first compound 0.00949 µM): 82.8%
viability, T/C (second compound 0.003 µM, first compound 0.03 µM): 88.2%
viability, T/C (second compound 0.003 µM, first compound 0.0949 µM): 95.4%
viability, T/C (second compound 0.003 µM, first compound 0.3 µM): 73.6%
viability, T/C (second compound 0.00949 µM, first compound 0.000949 µM): 109%
viability, T/C (second compound 0.00949 µM, first compound 0.003 µM): 86.5%
viability, T/C (second compound 0.00949 µM, first compound 0.00949 µM): 92.3%
viability, T/C (second compound 0.00949 µM, first compound 0.03 µM): 90.7%
viability, T/C (second compound 0.00949 µM, first compound 0.0949 µM): 90.5%
viability, T/C (second compound 0.00949 µM, first compound 0.3 µM): 82.9%
viability, T/C (second compound 0.03 µM, first compound 0.000949 µM): 95.4%
viability, T/C (second compound 0.03 µM, first compound 0.003 µM): 103%
viability, T/C (second compound 0.03 µM, first compound 0.00949 µM): 96%
viability, T/C (second compound 0.03 µM, first compound 0.03 µM): 91.1%
viability, T/C (second compound 0.03 µM, first compound 0.0949 µM): 70.4%
viability, T/C (second compound 0.03 µM, first compound 0.3 µM): 93.4%
viability, T/C (second compound 0.0949 µM, first compound 0.000949 µM): 88.2%
viability, T/C (second compound 0.0949 µM, first compound 0.003 µM): 93.4%
viability, T/C (second compound 0.0949 µM, first compound 0.00949 µM): 90.3%
viability, T/C (second compound 0.0949 µM, first compound 0.03 µM): 84.8%
viability, T/C (second compound 0.0949 µM, first compound 0.0949 µM): 64.8%
viability, T/C (second compound 0.0949 µM, first compound 0.3 µM): 79.2%
viability, T/C (second compound 0.3 µM, first compound 0.000949 µM): 91%
viability, T/C (second compound 0.3 µM, first compound 0.003 µM): 83.9%
viability, T/C (second compound 0.3 µM, first compound 0.00949 µM): 75.2%
viability, T/C (second compound 0.3 µM, first compound 0.03 µM): 63.8%
viability, T/C (second compound 0.3 µM, first compound 0.0949 µM): 71.8%
viability, T/C (second compound 0.3 µM, first compound 0.3 µM): 79.8%
